Measured values: patent USRE42890E1, “Furazanobenzimidazoles” (Basilea Pharmaceutica AG, priority 2003, dated 2011)

Key:
HT1080 = experiment: MTS proliferation assay, HT1080; format: cell-based, human; details: HT1080, 72 h incubation; read-out: MTS proliferation assay IC 50 HT1080
Summary of the method: (§1)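 Absorbance at 492 nm after 3 h with MTS reagent gave the proliferation read-out. Before that, cells in RPMI-1640 complete medium (5% or 10% FCS) were treated 72 h with compound at four final concentrations, 0.3 to 10 μM.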

Jily = experiment: MTS proliferation assay, Jily; format: cell-based; details: 72 h incubation, read-out: MTS proliferation assay IC 50 Jily
Summary of the method: (§2)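 Read-out: MTS absorbance at 492 nm after 3 h reagent incubation. Before that, cells grew 72 h at 37° C/7.5% CO2 with test compounds at final concentrations of 10 μM, 3 μM, 1 μM and 0.3 μM, added 24 h post-seeding.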

Jurkat = experiment: MTS proliferation assay, Jurkat; format: cell-based, human; details: 72 h incubation, read-out: MTS proliferation assay IC 50 Jurkat
Summary of the method: as §1

[1] = system: adherent cells or suspension cells; experiment: Hoechst 33342 nuclear staining (fraction of apoptotic nuclei); format: cell-based; design: key: 0 relating to no activity; 1 relating to weak activity comprising less than 70% of the cells; score 2 relating to strong activity comprising more than 70% of the cells
HeLa = experiment: MTS proliferation assay, HeLa; format: cell-based, human; details: 72 h incubation, read-out: MTS proliferation assay IC 50 HeLa
Summary of the method: as §1

MRC5 = experiment: MTS proliferation assay, MRC5; format: cell-based; details: MRC5, 72 h incubation; read-out: MTS proliferation assay IC 50 MRC5
Summary of the method: as §2

Row | Structure (SMILES) | IC50 (HT1080) [nM] | IC50 (Jurkat) [nM] | IC50 (Jily) [nM] | Hoechst 33342 nuclear staining score ([1]; H460, conc 0.01 μm) | Hoechst 33342 nuclear staining score ([1]; H460, conc 0.1 μm) | Hoechst 33342 nuclear staining score ([1]; H460, conc 1 μm) | Hoechst 33342 nuclear staining score ([1]; HeLa, conc 0.01 μm) | Hoechst 33342 nuclear staining score ([1]; HeLa, conc 0.1 μm) | Hoechst 33342 nuclear staining score ([1]; HeLa, conc 1 μm) | Hoechst 33342 nuclear staining score ([1]; Jily, conc 0.01 μm) | Hoechst 33342 nuclear staining score ([1]; Jily, conc 0.1 μm) | Hoechst 33342 nuclear staining score ([1]; Jily, conc 1 μm) | Hoechst 33342 nuclear staining score ([1]; Jurkat, conc 0.01 μm) | Hoechst 33342 nuclear staining score ([1]; Jurkat, conc 0.1 μm) | Hoechst 33342 nuclear staining score ([1]; Jurkat, conc 1 μm) | Hoechst 33342 nuclear staining score ([1]; MRC5, conc 0.01 μm) | Hoechst 33342 nuclear staining score ([1]; MRC5, conc 0.1 μm) | Hoechst 33342 nuclear staining score ([1]; MRC5, conc 1 μm) | Hoechst 33342 nuclear staining score ([1]; PBLs, conc 0.01 μm) | Hoechst 33342 nuclear staining score ([1]; PBLs, conc 0.1 μm) | further results
1 | Cc1ccc(C(=O)Cn2c(-c3nonc3N)nc3ccccc32)cc1 [Example 44] | 10 to 100 | < 10 | 10 to 100 | 0 | 2 (score 2 relating to strong activity comprising more than 70% of the cells) | 2 (score 2 relating to strong activity comprising more than 70% of the cells) | 0 | 1 (1 relating to weak activity comprising less than 70% of the cells) | 2 (score 2 relating to strong activity comprising more than 70% of the cells) | 0 | 2 (score 2 relating to strong activity comprising more than 70% of the cells) | 2 (score 2 relating to strong activity comprising more than 70% of the cells) | 0 | 2 (score 2 relating to strong activity comprising more than 70% of the cells) | 2 (score 2 relating to strong activity comprising more than 70% of the cells) | 0 | 0 | 2 (score 2 relating to strong activity comprising more than 70% of the cells) | 0 | 0 | Hoechst 33342 nuclear staining score ([1]; PBLs, conc 1 μm): 0; IC50 (HeLa): 10 to 100 nM; IC50 (MRC5): 10 to 100 nM
2 | CC(=O)Nc1ccc(C(=O)Cn2c(-c3nonc3N)nc3ccccc32)cc1[N+](=O)[O-] [Example 64] | 10 to 100 | 10 to 100 | 10 to 100 | 0 | 2 (score 2 relating to strong activity comprising more than 70% of the cells) | 2 (score 2 relating to strong activity comprising more than 70% of the cells) | 0 | 2 (score 2 relating to strong activity comprising more than 70% of the cells) | 2 (score 2 relating to strong activity comprising more than 70% of the cells) | 2 (score 2 relating to strong activity comprising more than 70% of the cells) | 2 (score 2 relating to strong activity comprising more than 70% of the cells) | 2 (score 2 relating to strong activity comprising more than 70% of the cells) | 2 (score 2 relating to strong activity comprising more than 70% of the cells) | 2 (score 2 relating to strong activity comprising more than 70% of the cells) | 2 (score 2 relating to strong activity comprising more than 70% of the cells) | 0 | 1 (1 relating to weak activity comprising less than 70% of the cells) | 1 (1 relating to weak activity comprising less than 70% of the cells) | 0 | 0 | Hoechst 33342 nuclear staining score ([1]; PBLs, conc 1 μm): 0; IC50 (HeLa): 10 to 100 nM; IC50 (MRC5): 10 to 100 nM
3 | N#CCCNc1nonc1-c1nc2ccccc2n1CC(=O)c1ccc(N)cc1.O=C(O)C(=O)O [Example 61] | 10 to 100 | 10 to 100 | 10 to 100 | 0 | 2 (score 2 relating to strong activity comprising more than 70% of the cells) | 2 (score 2 relating to strong activity comprising more than 70% of the cells) | 0 | 2 (score 2 relating to strong activity comprising more than 70% of the cells) | 2 (score 2 relating to strong activity comprising more than 70% of the cells) | 0 | 2 (score 2 relating to strong activity comprising more than 70% of the cells) | 2 (score 2 relating to strong activity comprising more than 70% of the cells) | 0 | 2 (score 2 relating to strong activity comprising more than 70% of the cells) | 2 (score 2 relating to strong activity comprising more than 70% of the cells) | 0 | 2 (score 2 relating to strong activity comprising more than 70% of the cells) | 2 (score 2 relating to strong activity comprising more than 70% of the cells) | 0 | 0 | Hoechst 33342 nuclear staining score ([1]; PBLs, conc 1 μm): 0; IC50 (HeLa): 10 to 100 nM; IC50 (MRC5): 10 to 100 nM

Further lines, with some results ahead:

Row | IC50 (HT1080) [nM] | IC50 (Jurkat) [nM] | Structure (SMILES) | IC50 (Jily) [nM] | Hoechst 33342 nuclear staining score ([1]; H460, conc 0.01 μm) | Hoechst 33342 nuclear staining score ([1]; H460, conc 0.1 μm) | Hoechst 33342 nuclear staining score ([1]; H460, conc 1 μm) | Hoechst 33342 nuclear staining score ([1]; HeLa, conc 0.01 μm) | Hoechst 33342 nuclear staining score ([1]; HeLa, conc 0.1 μm) | Hoechst 33342 nuclear staining score ([1]; HeLa, conc 1 μm) | Hoechst 33342 nuclear staining score ([1]; Jily, conc 0.01 μm) | Hoechst 33342 nuclear staining score ([1]; Jily, conc 0.1 μm) | Hoechst 33342 nuclear staining score ([1]; Jily, conc 1 μm) | Hoechst 33342 nuclear staining score ([1]; Jurkat, conc 0.01 μm) | Hoechst 33342 nuclear staining score ([1]; Jurkat, conc 0.1 μm) | Hoechst 33342 nuclear staining score ([1]; Jurkat, conc 1 μm) | Hoechst 33342 nuclear staining score ([1]; MRC5, conc 0.01 μm) | Hoechst 33342 nuclear staining score ([1]; MRC5, conc 0.1 μm) | Hoechst 33342 nuclear staining score ([1]; MRC5, conc 1 μm) | Hoechst 33342 nuclear staining score ([1]; PBLs, conc 0.01 μm) | Hoechst 33342 nuclear staining score ([1]; PBLs, conc 0.1 μm) | further results
4 | < 10 | < 10 | Nc1ccc(C(=O)Cn2c(-c3nonc3N)nc3ccccc32)cn1 [Example 78] | < 10 | 2 (score 2 relating to strong activity comprising more than 70% of the cells) | 2 (score 2 relating to strong activity comprising more than 70% of the cells) | 2 (score 2 relating to strong activity comprising more than 70% of the cells) | 2 (score 2 relating to strong activity comprising more than 70% of the cells) | 2 (score 2 relating to strong activity comprising more than 70% of the cells) | 2 (score 2 relating to strong activity comprising more than 70% of the cells) | 2 (score 2 relating to strong activity comprising more than 70% of the cells) | 2 (score 2 relating to strong activity comprising more than 70% of the cells) | 2 (score 2 relating to strong activity comprising more than 70% of the cells) | 2 (score 2 relating to strong activity comprising more than 70% of the cells) | 2 (score 2 relating to strong activity comprising more than 70% of the cells) | 2 (score 2 relating to strong activity comprising more than 70% of the cells) | 1 (1 relating to weak activity comprising less than 70% of the cells) | 2 (score 2 relating to strong activity comprising more than 70% of the cells) | 2 (score 2 relating to strong activity comprising more than 70% of the cells) | 0 | 0 | Hoechst 33342 nuclear staining score ([1]; PBLs, conc 1 μm): 0; IC50 (HeLa): < 10 nM; IC50 (MRC5): < 10 nM
5 | > 1000 | 100 to 1000 | Nc1nonc1-c1nc2ccccc2n1COc1ccc([N+](=O)[O-])cc1 [Example 98] | 100 to 1000 | 0 | 0 | 0 | 0 | 0 | 0 | 0 | 0 | 2 (score 2 relating to strong activity comprising more than 70% of the cells) | 0 | 0 | 2 (score 2 relating to strong activity comprising more than 70% of the cells) | 0 | 0 | 0 | 0 | 0 | Hoechst 33342 nuclear staining score ([1]; PBLs, conc 1 μm): 0; IC50 (HeLa): > 1000 nM; IC50 (MRC5): > 1000 nM
6 | 100 to 1000 | 10 to 100 | COc1ccc(C(=O)Cn2c(-c3nonc3N)nc3ccccc32)cc1[N+](=O)[O-] [Example 68] | 10 to 100 | 0 | 0 | 2 (score 2 relating to strong activity comprising more than 70% of the cells) | 0 | 0 | 2 (score 2 relating to strong activity comprising more than 70% of the cells) | 0 | 1 (1 relating to weak activity comprising less than 70% of the cells) | 1 (1 relating to weak activity comprising less than 70% of the cells) | 0 | 2 (score 2 relating to strong activity comprising more than 70% of the cells) | 2 (score 2 relating to strong activity comprising more than 70% of the cells) | 0 | 0 | 1 (1 relating to weak activity comprising less than 70% of the cells) | 0 | 0 | Hoechst 33342 nuclear staining score ([1]; PBLs, conc 1 μm): 0; IC50 (HeLa): 100 to 1000 nM; IC50 (MRC5): 100 to 1000 nM
